One compound from US7122668B2, “Platinum complexes and their use in therapy” (priority 2002, dated 2006) can be followed below.

The test system of one assay is calf thymus DNA. In words: DNA binding (calf thymus DNA platination). As to the method: The formation of calf thymus DNA platination was also examined. To this end, calf thymus DNA was incubated with different compounds (Table 3) in which the following parameters were determined: […]
Assay [1] has as its system C-26 cells. Conditions: 5 hr, 4.5 μM. An excerpt:
(§1) (1) By staining of the C-26 and OV-1063 cells with Merocyanine 540 (MC 540) (Molecular probes, Oregon, USA) and 4′, 6-diamidino-2-phenylindone dihydrochloride (DAPI) (Molecular probes, Oregon, USA). This assay is based on the observation that soon after the initiation of apoptosis, phosphatidylserine (PS) translocates from the inner face of the plasma membrane to the cell surface. At this point, PS can be easily detected by staining with MC 540, which has a strong affinity to PS^(25). Chromatin condensation was assessed by staining with DAPI, which preferentially stains double stranded DNA. In the following experiments samples containing 5*10^5 cells were cultured on 6-well plates covered with a glass coverslip. After treatment of cells with IC50 of the complexes, cells were washed with PBS and incubated for 2 min in the dark in 500 μl of PBS containing 2.5 μl of MC 540 (1 mg/ml). After that cells were washed with PBS, fixated with 4% formaldehyde and stained with 300 μl DAPI (3 μM). Thereafter, glass coverslip was placed on a glass slide and photographed using a fluorescence confocal microscope.
(§2) Apoptosis, also known as programmed cell death, is involved in the regulation of cell number in multicellular organism, and the pathogenesis of various diseases, including tumor progression, neurodegenerative disorders and viral infections. […]

Another assay relates to OV-1063 cells. The settings on record: 5 hr, 6.5 μM.
Source text: as §1, §2

Assay [2] relates to C-26 cells. In kind it is cell-based. Conditions: cell lines of Table 1. As to the method: A human ovarian carcinoma cell line (OV-1063), established at the Hadassah University hospital and human colon carcinoma cell line (C-26) were maintained in RPMI-1640 medium supplemented with 10% FCS, antibiotics and glutamine. All culture medium components were purchased from Biological Industries (Beit-HaEmek, Israel). Both cell lines were maintained at 37° C. in a water-jacketed CO2 incubator.
Cytotoxicity of the synthesized complexes was tested by the methylene blue (MB) staining assay^(19). A fixed number of exponentially growing cells in 200 μl medium were plated in 96-microwell, flat-bottomed plates. For each of the complexes tested, 4 well were used. Following 24 hr in culture, 20 μl of different concentration of the complexes were added to each well containing untreated cells. Normal saline was added to the controls. Cells were exposed to complexes for 4, 24, or 72 hr. At the end of exposure for a fixed time interval, the treated cells as well as parallel control cells were washed and incubation was continued in fresh medium until termination of the experiment. Following 72 hr of growth, cells were fixed by adding 50 μl of 2.5% of glutaraldehyde to each well for 15 min. Fixed cells were rinsed 10 times with fresh de-ionized water and once with borate buffer (0.1 M, pH=8.5), dried and stained with MB (100 μl of 1% solution in 0.1 M borate buffer, pH=8.5) for 1 hr at room temperature. Stained cells were rinsed thoroughly with de-ionized water to remove any non-cell-bound die and then dried. The MB bound to the fixed cells was extracted by incubation at 37° C. with 200 μl of 0.1N HCl for 1 hr, and the net optical density (OD) of the die in each well was determined by a plate spectrophotometer (Labsystems Multyskan BICHROMATIC, Finland) at 620 nm.

In the case of `C1CCNCC1.Cc1ccncc1.[Cl][Pt][Cl]` [Complex 5, trans-[PtCl2(4-picoline)(piperidine)]], the “% IEC/adduct, frequency of interstrand crosslinks” value in the assay with calf thymus DNA turned out to be 2%. Further, the “unwinding angle per adduct” value with calf thymus DNA amounted to 11°. Besides, the “t1/2 half time of the binding to calf thymus DNA” value in the assay on calf thymus DNA (10 mM NaClO4, 37° C., ri = 0.08, differential pulse polarography) is 4.33 h. The “ΔTm, 0.01M Na+” value with calf thymus DNA (rb = 0.05, 0.01M Na+) was “+5.5 0.C”. In addition, the “ΔTm, 0.2 M” value in the assay with calf thymus DNA (rb = 0.05, 0.2 M) is reported as “+0.5 0.C”. The “ΔΔεmax, maximum of the positive CD band at around 275 nm” value in the assay with calf thymus DNA (rb = 0.05, difference between control and platinated DNA) is recorded as 0.04. Further, the results for the “apoptosis by MC 540/DAPI staining” value in the assay with C-26 cells [1] and with OV-1063 cells were “slightly red-fluorescent” and “large proportion of the OV-1063 cells appeared to be apoptotic”, respectively. In addition, in the assay with C-26 cells [2], the “folds less active than cisplatin” value was 3 folds.
